“And” between values parts separate entries of the source, which are not always exact repeats. Equal entries are not always repeated. Inconclusive results are not listed. Numbered stars: 1 amine (or outer) side, 2 acyl side, 3 side chain; on linkers, the order of the positions; unused ones are H or OH. Bridge positions count the residues as written; N and C are the ends. Square brackets hold non-standard residues; d marks the D form. Peptide text beside a SMILES is read from it. I, II: the chains in the order shown. Actinocin(9to1) = Cc1c2oc3c(C)ccc(C(=O)[*:1])c3nc-2c(C(=O)[*:2])c(N)c1=O; aThr = C[C@H](O)[C@H](N)C(=O)O; NMeV = CN[C@H](C(=O)O)C(C)C; Sar = CNCC(=O)O
Test system: nude mice, LX-1 lung xenograft intrarenal, tumor weight T/C
Test: NCI In Vivo Anticancer Drug Screen. Data for tumor model Human Lung LX-1 Xenograft (intrarenal inoculation) in NU/NU Swiss (nude) mice
Conditions: endpoint: mean tumor weight change, higher = larger tumour
Method in brief: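 Compound-treated mice carrying transplanted tumors were compared with vehicle-treated controls. Tumor size was the measured end point, and the value is the treated-group measurement divided by the control-group measurement (T/C).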

[1] = dose: 100.0 mg/kg/injection, schedule: Q04DX003 (sc), vehicle: suspension in saline
[2] = dose: 200.0 mg/kg/injection, schedule: Q04DX003 (sc), vehicle: suspension in saline
[3] = dose: 400.0 mg/kg/injection, schedule: Q04DX003 (sc), vehicle: suspension in saline
[4] = dose: 75.0 mg/kg/injection, schedule: Q04DX003 (sc), vehicle: saline with Tween-80
[5] = dose: 150.0 mg/kg/injection, schedule: Q04DX003 (sc), vehicle: saline with Tween-80
[6] = dose: 25.0 mg/kg/injection, schedule: Q01DX010 (sc), vehicle: saline with Tween-80

## C[Si](C)(C)O/C=C1/CCOC1=O
dose: 50.0 mg/kg/injection, schedule: Q04DX003 (sc), vehicle: suspension in saline
  T/C: 115 % of control
[1]
  T/C: 122 % of control
[2]
  T/C: 107 % of control
[3]
  T/C: 106 % of control

## O=C(O)CC(=O)O.[NH-]C1CCCCC1[NH-].[Pt+2] (configuration not stated)
dose: 5.0 mg/kg/injection, schedule: Q01DX010 (sc), vehicle: dextrose
  T/C: 187 % of control and 247 % of control
dose: 10.0 mg/kg/injection, schedule: Q01DX010 (sc), vehicle: dextrose
  T/C: 92 % of control

## CC(=O)OC1C(O)C(C)OC(OC2C(OC(=O)C3CCC4C(C3)OC3(CC(OC(=O)/C=C/c5ccccc5)C(C)CO3)C43CO3)OC(C)C(O)C2OC(C)=O)C1O (configuration not stated)
dose: 15.0 mg/kg/injection, schedule: Q04DX003 (sc), vehicle: distilled water + Tween-80
  T/C: 114 % of control
dose: 30.0 mg/kg/injection, schedule: Q04DX003 (sc), vehicle: distilled water + Tween-80
  T/C: 121 % of control
dose: 60.0 mg/kg/injection, schedule: Q04DX003 (sc), vehicle: distilled water + Tween-80
  T/C: 162 % of control

## COC1C(O)C(C)OC(OC2C(Oc3cccc4c(O)c5c(=O)oc6ccc(C)c7c(=O)oc(c34)c5c67)OC(C)C(O)C2O)C1O (configuration not stated)
dose: 50.0 mg/kg/injection, schedule: Q01DX010 (sc), vehicle: Klucel (hydroxypropylcellulose) (HPC)
  T/C: 84 % of control
dose: 100.0 mg/kg/injection, schedule: Q01DX010 (sc), vehicle: Klucel (hydroxypropylcellulose) (HPC)
  T/C: 63 % of control
dose: 200.0 mg/kg/injection, schedule: Q01DX010 (sc), vehicle: Klucel (hydroxypropylcellulose) (HPC)
  T/C: 54 % of control
dose: 400.0 mg/kg/injection, schedule: Q01DX010 (sc), vehicle: Klucel (hydroxypropylcellulose) (HPC)
  T/C: 58 % of control

## CCCCCCCCCCCCCC#CC(=O)O
[4]
  T/C: 89 % of control
[5]
  T/C: 112 % of control
dose: 300.0 mg/kg/injection, schedule: Q04DX003 (sc), vehicle: saline with Tween-80
  T/C: 105 % of control

## CC1CC(C)CC(C)C(O)/C(C#N)=C/C=C/CC(C2CCCC2C(=O)O)OC(=O)CC(O)C(C)C1 (configuration not stated)
dose: 6.0 mg/kg/injection, schedule: Q04DX003 (sc), vehicle: Klucel (hydroxypropylcellulose) (HPC)
  T/C: 117 % of control
dose: 12.0 mg/kg/injection, schedule: Q04DX003 (sc), vehicle: Klucel (hydroxypropylcellulose) (HPC)
  T/C: 58 % of control
dose: 24.0 mg/kg/injection, schedule: Q04DX003 (sc), vehicle: Klucel (hydroxypropylcellulose) (HPC)
  T/C: 48 % of control

## COc1cc(C(=O)N/N=C/c2cccc([N+](=O)[O-])c2)cc(OC)c1OC
[5]
  T/C: 86 % of control

## O=C1c2cccc3cc([N+](=O)[O-])cc(c23)C(=O)N1CCN1CCCC1
dose: 9.0 mg/kg/injection, schedule: Q04DX003 (sc), vehicle: saline with Tween-80
  T/C: 104 % of control
dose: 18.0 mg/kg/injection, schedule: Q04DX003 (sc), vehicle: saline with Tween-80
  T/C: 75 % of control
dose: 36.0 mg/kg/injection, schedule: Q04DX003 (sc), vehicle: saline with Tween-80
  T/C: 74 % of control
dose: 72.0 mg/kg/injection, schedule: Q04DX003 (sc), vehicle: saline with Tween-80
  T/C: 76 % of control

## CCC1CN2C(=N1)c1ccccc1-c1cc(Cl)ccc12 (configuration not stated)
dose: 12.5 mg/kg/injection, schedule: Q01DX010 (sc), vehicle: saline with Tween-80
  T/C: 54 % of control
[6]
  T/C: 60 % of control
dose: 50.0 mg/kg/injection, schedule: Q01DX010 (sc), vehicle: saline with Tween-80
  T/C: 107 % of control

## O=C[C@@H](CO)O[C@H](C=O)n1cnc2c(=O)[nH]cnc21
[1]
  T/C: 71 % of control
[2]
  T/C: 57 % of control
[3]
  T/C: 59 % of control
dose: 800.0 mg/kg/injection, schedule: Q04DX003 (sc), vehicle: suspension in saline
  T/C: 54 % of control

## CN(C)CCN1C(=O)c2cccc3cc(N)cc(c23)C1=O
dose: 16.0 mg/kg/injection, schedule: Q04DX003 (sc), vehicle: saline with Tween-80
  T/C: 157 % of control
dose: 64.0 mg/kg/injection, schedule: Q04DX003 (sc), vehicle: saline with Tween-80
  T/C: 113 % of control

## Cn1c2nc(=O)n(-c3ccccc3)c(=O)c-2nc2c1CCCC2
[4]
  T/C: 71 % of control
[5]
  T/C: 101 % of control

## CS(=O)(=O)OCCCCOS(C)(=O)=O
[6]
  T/C: 41 % of control

## O=C1CC2(C(=O)N1CN1CCCCC1)c1ccccc1-c1ccccc12
dose: 200.0 mg/kg/injection, schedule: Q04DX003 (sc), vehicle: Klucel (hydroxypropylcellulose) (HPC)
  T/C: 224 % of control
dose: 400.0 mg/kg/injection, schedule: Q04DX003 (sc), vehicle: Klucel (hydroxypropylcellulose) (HPC)
  T/C: 170 % of control

## CN=C(N)N/N=C(\C)c1ccc2c(c1)Cc1cc(/C(C)=N/NC(N)=NC)ccc1-2
dose: 12.5 mg/kg/injection, schedule: Q04DX003 (sc), vehicle: saline with Tween-80
  T/C: 99 % of control
dose: 25.0 mg/kg/injection, schedule: Q04DX003 (sc), vehicle: saline with Tween-80
  T/C: 90 % of control
dose: 50.0 mg/kg/injection, schedule: Q04DX003 (sc), vehicle: saline with Tween-80
  T/C: 67 % of control
dose: 100.0 mg/kg/injection, schedule: Q04DX003 (sc), vehicle: saline with Tween-80
  T/C: 69 % of control

## C/C(=N\N=C(/[Se])N1CC2CCC(CC2)C1)c1ccccn1
dose: 12.5 mg/kg/injection, schedule: Q04DX003 (sc), vehicle: Klucel (hydroxypropylcellulose) (HPC)
  T/C: 100 % of control
dose: 25.0 mg/kg/injection, schedule: Q04DX003 (sc), vehicle: Klucel (hydroxypropylcellulose) (HPC)
  T/C: 79 % of control
dose: 50.0 mg/kg/injection, schedule: Q04DX003 (sc), vehicle: Klucel (hydroxypropylcellulose) (HPC)
  T/C: 85 % of control
dose: 100.0 mg/kg/injection, schedule: Q04DX003 (sc), vehicle: Klucel (hydroxypropylcellulose) (HPC)
  T/C: 253 % of control

## CCCCn1cnc2c(=S)nc[nH]c21
dose: 300.0 mg/kg/injection, schedule: Q04DX003 (sc), vehicle: suspension in saline
  T/C: 69 % of control
dose: 600.0 mg/kg/injection, schedule: Q04DX003 (sc), vehicle: suspension in saline
  T/C: 53 % of control
dose: 1200.0 mg/kg/injection, schedule: Q04DX003 (sc), vehicle: suspension in saline
  T/C: 61 % of control
dose: 2400.0 mg/kg/injection, schedule: Q04DX003 (sc), vehicle: suspension in saline
  T/C: 57 % of control

## CNC(=O)OCc1c(COC(=O)NC)c(-c2ccc(Cl)c(Cl)c2)n2c1Cc1ccccc1C2
dose: 150.0 mg/kg/injection, schedule: Q04DX003 (sc), vehicle: distilled water + Tween-80
  T/C: 97 % of control
dose: 300.0 mg/kg/injection, schedule: Q04DX003 (sc), vehicle: distilled water + Tween-80
  T/C: 71 % of control
dose: 600.0 mg/kg/injection, schedule: Q04DX003 (sc), vehicle: distilled water + Tween-80
  T/C: 58 % of control
dose: 1200.0 mg/kg/injection, schedule: Q04DX003 (sc), vehicle: distilled water + Tween-80
  T/C: 54 % of control

## O=C(O)CSc1c(Cl)c(=O)oc2ccc(Cl)cc12
dose: 150.0 mg/kg/injection, schedule: Q04DX003 (sc), vehicle: Klucel (hydroxypropylcellulose) (HPC)
  T/C: 52 % of control
dose: 300.0 mg/kg/injection, schedule: Q04DX003 (sc), vehicle: Klucel (hydroxypropylcellulose) (HPC)
  T/C: 70 % of control
dose: 600.0 mg/kg/injection, schedule: Q04DX003 (sc), vehicle: Klucel (hydroxypropylcellulose) (HPC)
  T/C: 82 % of control
dose: 1200.0 mg/kg/injection, schedule: Q04DX003 (sc), vehicle: Klucel (hydroxypropylcellulose) (HPC)
  T/C: 165 % of control

## Nc1ncnc2c1ncn2C1OC(COP(=O)(O)O)C(O)C1O (configuration not stated)
dose: 100.0 mg/kg/injection, schedule: Q01DX010 (sc), vehicle: saline
  T/C: 38 % of control
dose: 200.0 mg/kg/injection, schedule: Q01DX010 (sc), vehicle: saline
  T/C: 78 % of control
dose: 400.0 mg/kg/injection, schedule: Q01DX010 (sc), vehicle: saline
  T/C: 59 % of control
dose: 800.0 mg/kg/injection, schedule: Q01DX010 (sc), vehicle: saline
  T/C: 67 % of control

## OC(C1CO1)C(O)C1CO1 (configuration not stated)
dose: 1.0 mg/kg/injection, schedule: Q01DX010 (sc), vehicle: saline
  T/C: 73 % of control
dose: 2.0 mg/kg/injection, schedule: Q01DX010 (sc), vehicle: saline
  T/C: 66 % of control

## CC[C@@]1(O)C(=O)OCc2c1cc1n(c2=O)Cc2cc3cc(O)ccc3nc2-1
dose: 32.0 mg/kg/injection, schedule: Q04DX003 (sc), vehicle: suspension in saline
  T/C: 12 % of control and 14 % of control

## Cc1c2oc3c(C)ccc(C(=O)N[C@@H]4C(=O)N[C@H](C(C)C)C(=O)N5CCC[C@H]5C(=O)N(C)CC(=O)N(C)[C@@H](C(C)C)C(=O)O[C@H]4C)c3nc-2c(C(=O)N[C@@H]2C(=O)N[C@H](C(C)C)C(=O)N3CCC[C@H]3C(=O)N(C)CC(=O)N(C)[C@@H](C(C)C)C(=O)O[C@H]2C)c(N)c1=O (I: [aThr][dV]P[Sar][NMeV] / II: [aThr][dV]P[Sar][NMeV]; ester I:1-I:C, II:1-II:C; linker I:N-II:N via Actinocin(9to1))
dose: 100.0 micrograms/kg/injection, schedule: Q01DX010 (sc), vehicle: saline
  T/C: 13 % of control and 24 % of control
dose: 200.0 micrograms/kg/injection, schedule: Q01DX010 (sc), vehicle: saline
  T/C: 13 % of control

Source: PubChem BioAssay AID264 (DTP/NCI, 2004)
